A value given as a limit tells only on which side of the number the result lay.

The first test deals with SARS-CoV-2 3CL-protease (Severe acute respiratory syndrome coronavirus 2 (2019-nCoV) (SARS-CoV-2), UniProt P0DTD1). The experiment in a line: SARS-CoV-2 3C-like (3CL) protease fluorescence assay (FRET). It is filed as biochemical. The note with it: read-out: FRET IC50.
Regarding `CN(C(=O)c1cc2c(F)cc(F)cc2[nH]1)[C@@H](CC1CCC1)C(=O)N1C[C@]2(C[C@H]1C#N)C(=O)Nc1ccccc12` [Compound 91], the IC50 (as a rule, the point on the concentration scale where inhibition reaches its midpoint) is under 100 nM. For the molecule `CC(C)C[C@@H](C(=O)N1C[C@]2(C[C@H]1C#N)C(=O)Nc1ccccc12)N(C)C(=O)c1ccc(F)cc1Cl` [Compound 61], the IC50 was under 100 nM.

As for `CN(C(=O)c1cc2c(F)cccc2[nH]1)[C@@H](CC1CCCCC1)C(=O)N1C[C@]2(C[C@H]1C#N)C(=O)Nc1ccccc12` [Compound 110], the IC50 is under 100 nM. Regarding `CN(C(=O)c1cc2c(OC(F)(F)F)cccc2[nH]1)[C@@H](CC1CCCC1)C(=O)N1C[C@]2(C[C@H]1C#N)C(=O)Nc1ccccc12` [Compound 108], the IC50 is under 100 nM.

As to `CC(C)CC[C@@H](C(=O)N1C[C@]2(C[C@H]1C#N)C(=O)Nc1ccccc12)N(C)C(=O)OCc1ccccc1` [Compound 100], the IC50 is under 100 nM. The same measure, in the same setting: the result for `COc1ccc(Cl)c(C(=O)N(C)[C@@H](CC(C)C)C(=O)N2C[C@]3(C[C@H]2C#N)C(=O)Nc2ccccc23)c1` [Compound 58] reads under 100 nM. `CC(C)C[C@@H](C(=O)N1C[C@]2(C[C@H]1C#N)C(=O)Nc1ccccc12)N(C)C(=O)c1sc2cc(F)ccc2c1Cl` [Compound 43]: the IC50 lay in the range of 100 to 1000 nM.

The next test has as its system 229E human corona virus (hCoV). Nature of the test: 229E live virus assay. It counts as cell-based, hCoV-229E. The note with it: Human coronavirus 229E, MRC5, 144 h, read-out: 229E EC50.
With `[2H]C([2H])([2H])N(C(=O)c1cnn(C(C)(C)C)c1)[C@@H](CC1CC1)C(=O)N1C[C@]2(C[C@H]1C#N)C(=O)Nc1ccccc12` [Compound 125], the EC50 (usually the concentration giving half of the maximal effect) is under 100 nM.

The values above are taken from patent US11352363B1, “Spiropyrrolidine derived antiviral agents” (Enanta Pharmaceuticals, Inc., priority 2020, dated 2022).
